Assay results published in publication PMC10840383, “Clinical features, functional consequences, and rescue pharmacology of missense GRID1 and GRID2 human variants” (Human Molecular Genetics, 2023).
pIC50: −log10 of the molar value.

What was measured:
GluD1-R341Q = molecular target: T1, GluD1-R341Q (Homo sapiens, UniProt Q9ULK0, R341Q); experiment: TEVC of constitutive current, Xenopus oocytes expressing GluD1-R341Q; format: cell-based
T1 construct: expressed in transfected cells; host or cells: Xenopus laevis oocytes injected with cRNA
T1 sequence (Q9ULK0 21-1009 R341Q): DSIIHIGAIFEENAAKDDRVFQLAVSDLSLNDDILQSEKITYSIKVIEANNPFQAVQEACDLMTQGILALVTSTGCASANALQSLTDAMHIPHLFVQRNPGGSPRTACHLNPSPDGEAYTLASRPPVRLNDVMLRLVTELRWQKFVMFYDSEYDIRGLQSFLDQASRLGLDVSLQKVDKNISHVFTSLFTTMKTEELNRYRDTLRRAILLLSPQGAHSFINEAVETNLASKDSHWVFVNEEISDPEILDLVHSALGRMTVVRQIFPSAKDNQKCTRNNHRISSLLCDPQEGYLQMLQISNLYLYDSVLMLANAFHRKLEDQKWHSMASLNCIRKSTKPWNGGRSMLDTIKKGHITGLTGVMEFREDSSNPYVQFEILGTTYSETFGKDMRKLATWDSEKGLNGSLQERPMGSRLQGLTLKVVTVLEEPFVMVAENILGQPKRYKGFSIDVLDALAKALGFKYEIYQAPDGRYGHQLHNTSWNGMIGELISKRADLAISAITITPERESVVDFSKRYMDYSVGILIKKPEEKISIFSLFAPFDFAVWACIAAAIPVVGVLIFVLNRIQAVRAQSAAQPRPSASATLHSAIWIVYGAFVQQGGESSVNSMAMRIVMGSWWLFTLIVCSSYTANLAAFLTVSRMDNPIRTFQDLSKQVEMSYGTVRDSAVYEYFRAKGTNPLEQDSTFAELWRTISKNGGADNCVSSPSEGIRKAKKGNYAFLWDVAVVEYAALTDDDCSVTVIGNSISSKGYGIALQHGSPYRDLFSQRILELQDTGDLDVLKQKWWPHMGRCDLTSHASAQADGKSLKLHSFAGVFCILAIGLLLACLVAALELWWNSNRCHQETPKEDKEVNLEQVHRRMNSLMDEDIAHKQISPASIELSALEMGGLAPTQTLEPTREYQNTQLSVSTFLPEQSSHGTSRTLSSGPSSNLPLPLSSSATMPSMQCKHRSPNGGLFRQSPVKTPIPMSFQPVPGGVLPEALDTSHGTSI

[1] = test system: constitutively active GluD1 and GluD2 receptor variants; experiment: Inhibition of constitutive currents of GluD variants by channel blockers, Xenopus oocytes; format: cell-based
Experimental: Xenopus laevis oocytes were prepared from ovaries purchased from Xenopus 1 (Dexter, MI) as previously described, [68] and incubated at 16°C in culture Barth’s solution (in mM) 88 NaCl, 2.4 NaHCO3, 1 KCl, 0.33 Ca(NO3)2, 0.41 CaCl2, 0.82 MgSO4, 10 HEPES, pH 7.4 with NaOH, supplemented with 1 U/ml penicillin and 1 μg/ml streptomycin. Oocytes were injected with approximately 5–40 ng RNA per oocyte and then incubated at 16–19°C for 1–3 days in culture Barth’s solution. The levels of GluD2-A654D and GluD2-A654T cRNA were reduced to 1.5 ng and 2.5 ng, respectively, due to oocyte toxicity. Two-electrode voltage clamp (TEVC) recordings were performed as previously described. Unless otherwise specified, extracellular solution contained (in mM) 90 NaCl, 3 KCl, 0.5 BaCl2, 0.01 EDTA, 10 HEPES, and was brought to pH 7.4 with NaOH. The oocytes were placed in a dual track recording chamber and gravity perfused with solution exchange controlled via a computer-driven 8-valve positioner (Digital MVP Valve). […] Recording electrodes were filled with 0.3 M KCl, and currents were recorded with membrane voltage held at −40 mV. To establish constitutive activity of recombinant receptors when compared to wild type receptors, we used the oocyte recording solution described above, but with 90 mM N-methyl-D-glucamine (NMDG) chloride replacing 90 mM NaCl. […] In addition to establishing constitutive activity, 90 mM NMDG was used in recording protocols with drug treatment to obtain the percent maximum theoretical inhibition of a compound, or to determine the relative degree of drug potentiation. For Ca^2+ concentration-response curves, choline chloride was used to maintain equimolar concentrations of Cl^− ions in the extracellular solution across the changing concentrations of calcium chloride. All compounds used in this study for concentration-response oocyte recordings were dissolved in deionized water as 50–100 mM stock solutions. In some rescue pharmacology experiments, we substituted 1 mM CaCl2 for 0.5 mM BaCl2 to evaluate Ca^2+-dependent control of receptor responses.

GluD2-A654T receptor = molecular target: GluD2-A654T receptor; parameters: method as in PMID 12606689; details: read-out: Pentamidine IC50; cited from earlier work

For `N[C@H](CO)C(=O)O` [D-serine], the “Effect on current, in words” value (GluD1-R341Q) was “insensitive” and the “D-Serine effect (Baseline −10 mM D-Serine)” value (GluD1-R341Q; 10 mM D-serine, positive = increase, negative = decrease of activity) was 7.2 ± 1.8 (6) nA.

In the case of `CC12CC3CC(C)(C1)CC(N)(C3)C2` [Memantine, memantine], the “Inhibition of constitutive currents, in words” value [1] was “more effectively than ketamine”.

In the case of `N=C(N)c1ccc(OCCCCCOc2ccc(C(=N)N)cc2)cc1` [Pentamidine, pentamidine], the “Pentamidine effect (Baseline −100 μM Pentamidine)” value (GluD1-R341Q; 100 μM pentamidine, positive = increase, negative = decrease of activity) is given as 64 ± 15 (6) nA, the “Inhibition of constitutive currents, in words” value [1] is given as “inhibits” and the pIC50 (GluD2-A654T receptor) is given as 4.96.
